Several values for one entry are separate records, joined by “and”; a condition that tells them apart may be missing. Equal values may be shown once.
Assays:
PC3 cells = assay: Human prostate cancer PC3 tumor growth in mice; type: in vivo; conditions: control and comparator arms; FIG. 138
Procedure: The ability of MIF-GN3 to mediate the depletion of MIF in a therapeutically relevant disease model was investigated. […] An experiment was conducted to determine whether the bifunctional molecule MIF-GN3 can deplete sufficient human MIF from serum to slow PC3 tumor growth. Mice were injected with an aliquot of PC3 cells, and the size of the resultant tumors as well as the levels of human MIF in serum were monitored over five weeks. […] Five weeks after the initial PC3 cell injection, the first of the mice reached maximal tumor size ([…]) and was sacrificed (FIG. 138). […] The decrease in human MIF levels mediated by MIF-GN3 is consistent with a mechanism of action in which MIF-GN3 mediates the depletion and degradation of circulating MIF protein. While the α-MIF antibody would not necessarily be expected to decrease the levels of human MIF, it is possible that the antibody mediates MIF neutralization in a manner which masks its signal as determined by ELISA. Alternatively, the α-MIF antibody may mediate depletion or degradation of huMIF by some endocytic mechanism. Another possible explanation is that the α-MIF antibody decrease serum levels of active human MIF to such an extent at early time points that PC3 cells proliferate much more slowly, and therefore fewer cells are actively secreting human MIF.
Mice were sacrificed when their tumor volumes reached 1000 mm^3. […] At this same time point, less than 25% of the mice in any other arm had survived.

α-DNP antibody [1] = assay: Depletion of α-DNP antibody from serum in mice (ELISA); type: in vivo; conditions: i.p.; FIG. 79A
α-DNP antibody [2] = assay: as above; type: in vivo; conditions: for serum α-DNP antibody levels compared to PBS: initial 200 μg monoclonal antibody, 21 days, nude mice
Procedure: FIG. 94 illustrates that serum levels of α-DNP antibody decrease more rapidly following repeated treatment with DNP-GN3. Serum antibody levels were measured using an ELISA assay. Each experimental group contained three mice. Statistical differences in experiments involving in vivo depletion of α-DNP antibody were assessed by repeated measures two-way ANOVA with Tukey's tests for post-hoc comparison of simple effects between each of the treatment groups and PBS.
Single doses of DNP-GN3 were also found to be efficacious at mediating α-DNP antibody depletion, albeit less effectively than daily dosing (FIG. 96). […] Therefore, it was concluded that DNP-GN3 is able to mediate the depletion of a monoclonal antibody from serum, and functions across a wide range of target protein concentrations and dosing regimens.
DNP-GN3 was also found to be efficacious in depleting polyclonal α-DNP antibody from serum collected from mice immunized with DNP-keyhole limpet haemocyanin (KLH) (FIG. 97). […] Thus, the small molecule DNP-GN3 is not restricted in function to only monoclonal mouse antibodies, but is also effective at removing polyclonal α-DNP antibodies from circulation in mice.

[3] = Tolerability of DNP-GN3 and DNP-OH3 in mice (body weight, AST, ALT); type: in vivo
Procedure: FIGS. 93A-93C illustrate that DNP-GN3 and DNP-OH3 are not toxic to mice at all tested concentrations. FIG. 93A: mouse body weight following treatment with DNP-GN3 or DNP-OH3. Statistical differences were analyzed by T test. FIG. 93B: levels of aspartate transaminase (AST) in treated mice. Dashed lines represent the normal range. FIG. 93C: levels of alanine transaminase (ALT) in treated mice. Dashed lines represent the normal range.

[4] = tested on: ASGPR on the surface of immortalized human hepatocyte HepG2 cells; assay: DNP-GN3-mediated ternary complex formation: association of fluorescently labeled α-DNP antibody with HepG2 cells in suspension; type: cell-based; conditions: for concentration of DNP-GN3 eliciting half-maximal fluorescence association: bell-shaped response, FIG. 86A
Description: It was investigated whether DNP-GN3 could mediate the formation of a ternary complex between a fluorescently labeled α-DNP antibody and ASGPR on the surface of immortalized human hepatocyte HepG2 cells in suspension. […] The observed bell-shaped response to DNP-GN3 concentration is consistent with the prozone effect commonly observed in systems wherein a ternary complex is formed.

HepG2 cells = assay: Subcellular localization of α-DNP antibody endocytosed via DNP-GN3 (microscopy); type: cell-based, human; conditions: after 12 hours

Compound: CC(=O)NC1C(OCCOCCOCCNC(=O)CCOCC(COCCC(=O)NCCOCCOCCOC2OC(CO)C(O)C(O)C2NC(C)=O)(COCCC(=O)NCCOCCOCCOC2OC(CO)C(O)C(O)C2NC(C)=O)NC(=O)CNC(=O)COCCOCCOCCNc2ccc([N+](=O)[O-])cc2[N+](=O)[O-])OC(CO)C(O)C1O (centres unmarked) [DNP-GN3]
- PC3 tumor growth (PC3 cells): not found to decrease tumor growth
- degradation of injected anti-DNP IgG antibodies in mouse serum (α-DNP antibody [1]): can induce degradation
- α-DNP antibody depleted from serum (α-DNP antibody [2]; 24 hours after a single dose of 1 mpk (vehicle 24%)): 52%
- α-DNP antibody depleted from serum (α-DNP antibody [2]; 24 hours after a single dose of 10 mpk (vehicle 24%)): 34%
- serum α-DNP antibody levels compared to PBS (α-DNP antibody [2]; daily 1 mpk): significantly reduced
- serum α-DNP antibody levels (α-DNP antibody [2]; daily treatment, initial antibody dose 500 μg): significant decrease
- polyclonal α-DNP antibody removed from serum compared to PBS (α-DNP antibody [2]; daily treatment, mice immunized with DNP-KLH, each time point): significantly more polyclonal α-DNP antibody was removed
- α-DNP antibody depletion from serum (α-DNP antibody [2]; single dose of 100 mpk): Significant depletion
- serum α-DNP antibody levels compared to PBS (α-DNP antibody [2]; twice-daily 1 mpk): significantly reduced
- toxicity to mice ([3]; all tested concentrations, FIGS. 93A-93C): not toxic
- body weight or serum liver enzyme levels, control versus treatment groups ([3]; up to 100 mpk, FIGS. 93A-93C): no significant differences
- tolerability ([3]; up to doses of 100 mpk): well-tolerated
- concentration of maximal ternary complex formation ([4]; DNP-GN3): 20 nM and 40 nM
- concentration of DNP-GN3 eliciting half-maximal fluorescence association ([4]; higher concentration (prozone)): 0.12 µM
- concentration of DNP-GN3 eliciting half-maximal fluorescence association ([4]; lower concentration): 0.0074 µM
- colocalization of endocytosed α-DNP antibody with early endosome marker EEA1 (HepG2 cells; FIG. 91A): No colocalization
- colocalization of α-DNP antibody with lysosome membrane protein LAMP2 (HepG2 cells; FIG. 91B): strong colocalization

Source: patent US20230087994A1, “TARGETED BIFUNCTIONAL DEGRADERS” (YALE UNIVERSITY, priority 2019, published 2023)
